# According to patent US20240018146A1, “COMPOSITIONS AND METHODS OF USING THE SAME FOR TREATMENT OF NEURODEGENERATIVE AND MITOCHONDRIAL DISEASE” (MITOKININ, INC., priority 2020, published 2024):
# pEC50: −log10 of the molar value. Like-named read-outs stand apart in the source and are kept apart here.
# What was measured:
# [1] = test system: HeLa MKYP cells; assay: Cell death measured by DAPI staining, with 1 μM FCCP/oligomycin or no toxin (no FO); format: cell-based
# Procedure: EP-0035985, EP-0037821, EP-0038098, and EP-0038099 in the presence of 1 μM FCCP/oligomycin or with no toxin (no FO) for 6 hrs. H2O2 treatment was performed as a control for cell death as measured by DAPI staining.
# EP-0035985, EP-0038461, EP-0038463, and EP-0038503 in the presence of 1 μM FCCP/oligomycin or with no toxin (no FO) for 6.5 hrs. H2O2 treatment was performed as a control for cell death as measured by DAPI staining.
# EP-0035985, EP-0038504, EP-0038508, and EP-0038521 in the presence of 1 μM FCCP/oligomycin or with no toxin (no FO) for 6.5 hrs. H2O2 treatment was performed as a control for cell death as measured by DAPI staining.
# EP-0035985, EP-0038461, EP-0038463, EP-0038503, EP-0038504, EP-0038508, and EP-0038521 in the presence of 1 μM FCCP/oligomycin or with no toxin (no FO) for 6.5 hrs. H2O2 treatment was performed as a control for cell death as measured by DAPI staining.
# [2] = test system: HeLa MKYP cells; assay: Human mitophagy assay (HeLa mKeima assay, FACS); format: cell-based; details: read-out: Mitophagy induction EC50
# Procedure: Briefly, HeLa MKYP cells were plated at 10,000 cells/well in 96 well plates along with compounds at various concentrations. Following 16 hrs of incubation, cells were treated with 1 uM FCCP/oligomycin for 6 hours, then analyzed via FACS for the presence of mitochondria in lysosomes (as determined by an emissions spectrum shift from the pH-sensitive mtKeima tag).
# Briefly, HeLa cells expressing a mitophagy indicator (mtKeima) protein were treated with […] of FCCP and Oligomycin followed by the specified dose of compound, then analyzed by FACS to quantify the percentage of cells undergoing mitophagy.
Structure (SMILES),Highest safe dose (cytotoxicity; no FO; safe means DAPI+ <20%) [1] [µM],Max % death with 1 μM FO [1] [%],"pEC50 ([2]; Homo sapiens, HeLa)",pEC50 [2]
OC[C@H]1CCN(C2CCc3ccccc3C2Nc2ncnc3[nH]c(C(F)(F)F)cc23)C1 (mixture of isomers) [EP-0040121],25.0,33.6,5.89,
Cc1ccc2c(c1)OC[C@H](N1CCOCC1)[C@H]2Nc1ncnc2[nH]c(C(F)(F)F)cc12 (racemic) [EP-0041045],25.0,7.7,5.81,
[2H]C([2H])([2H])OC1CN([C@@H]2COc3ccccc3[C@H]2Nc2ncnc3[nH]c(C(F)(F)F)cc23)C1 (racemic) [EP-0041327],25.0,4.1,< 4.60,
FC(F)OC1CN([C@H]2COc3ccccc3[C@@H]2Nc2ncnc3[nH]c(C(F)(F)F)cc23)C1 (racemic) [EP-0041354],25.0,12.4,,5.97
FC(F)OC1CN([C@H]2COc3ccccc3[C@@H]2Nc2ncnc3[nH]c(C(F)(F)F)cc23)C1 (racemic) [EP-0041542],25.0,3.8,,< 4.60
FC1(F)CN(C2COc3ccccc3C2Nc2ncnc3[nH]c(C4CC4)cc23)C1 (racemic) [EP-0041566],25.0,30.0,6.00,
CC(=O)N1CCN(C2COc3ccccc3C2Nc2ncnc3[nH]c(C4CC4)cc23)CC1 (racemic) [EP-0041596],25.0,15.3,5.57,
CN1CCN(C2COc3ccccc3C2Nc2ncnc3[nH]c(C4CC4)cc23)CC1=O (racemic) [EP-0041600],25.0,4.9,< 4.60,
"FC(F)(F)c1cc2c(N[C@H]3c4ccccc4CC[C@@H]3OCC3CCOCC3)ncnc2[nH]1 (single isomer, unassigned) [EP-0038523]",25.0,3.3,5.35,
"OC[C@@H]1CCCN1[C@H]1CCc2ccccc2[C@@H]1Nc1ncnc2[nH]c(C(F)(F)F)cc12 (single isomer, unassigned) [EP-0039732]",25.0,6.2,< 4.60,
"FC(F)(F)c1cc2c(N[C@H]3c4ccccc4CC[C@H]3OC3CCOCC3)ncnc2[nH]1 (single isomer, unassigned) [EP-0039733]",25.0,3.1,5.03,
"c1ccc2c(c1)OC[C@@H](N1CCOCC1)[C@@H]2Nc1ncnc2[nH]c(C3CC3)cc12 (single isomer, unassigned) [EP-0040181]",25.0,5.9,< 4.60,
"C[C@H]1COCCN1[C@@H]1CCc2ccccc2[C@H]1Nc1ncnc2[nH]c(C(F)(F)F)cc12 (single isomer, unassigned) [EP-0040182]",25.0,26.8,,4.67
"C[C@H]1COCCN1[C@@H]1CCc2ccccc2[C@H]1Nc1ncnc2[nH]c(C(F)(F)F)cc12 (single isomer, unassigned) [EP-0040193]",25.0,29.7,,5.02
"C[C@@H]1COCCN1[C@@H]1CCc2ccccc2[C@H]1Nc1ncnc2[nH]c(C(F)(F)F)cc12 (single isomer, unassigned) [EP-0040195]",25.0,12.0,4.73,
"C[C@@H]1COCCN1[C@@H]1CCc2ccccc2[C@H]1Nc1ncnc2[nH]c(C(F)(F)F)cc12 (single isomer, unassigned) [EP-0040197]",25.0,8.4,,4.64
"c1ccc2c(c1)CC[C@H](N1C[C@H]3COC[C@H]3C1)[C@H]2Nc1ncnc2[nH]c(C3CC3)cc12 (single isomer, unassigned) [EP-0040248]",25.0,3.7,< 4.60,
"c1ccc2c(c1)CC[C@@H](N1C[C@H]3COC[C@H]3C1)[C@@H]2Nc1ncnc2[nH]c(C3CC3)cc12 (single isomer, unassigned) [EP-0040249]",25.0,12.3,7.05,
"FC(F)(F)c1cc2c(N[C@H]3c4ccccc4OC[C@@H]3N3CCOCC3)ncnc2[nH]1 (single isomer, unassigned) [EP-0040251]",25.0,3.1,< 4.60,
"Fc1ccc2c(c1)OC[C@H](N1C[C@H]3COC[C@H]3C1)[C@H]2Nc1ncnc2[nH]c(C(F)(F)F)cc12 (single isomer, unassigned) [EP-0040268]",25.0,3.2,< 4.60,
"Fc1ccc2c(c1)OC[C@H](N1C[C@H]3COC[C@H]3C1)[C@H]2Nc1ncnc2[nH]c(C3CC3)cc12 (single isomer, unassigned) [EP-0040326]",25.0,3.6,,< 4.60
"C[C@@H]1COCCN1[C@H]1CCc2ccccc2[C@@H]1Nc1ncnc2[nH]c(C3CC3)cc12 (single isomer, unassigned) [EP-0040339]",25.0,16.5,< 4.60,
"C[C@@H]1COCCN1[C@H]1CCc2ccccc2[C@@H]1Nc1ncnc2[nH]c(C3CC3)cc12 (single isomer, unassigned) [EP-0040358]",2.8,97.8,,< 4.60
"c1ccc2c(c1)OC[C@H](N1C[C@H]3COC[C@H]3C1)[C@H]2Nc1ncnc2[nH]c(C3CC3)cc12 (single isomer, unassigned) [EP-0040391]",25.0,3.9,< 4.60,
"C[C@@H]1CN([C@@H]2CCc3ccccc3[C@H]2Nc2ncnc3[nH]c(C(F)(F)F)cc23)CCO1 (single isomer, unassigned) [EP-0040492]",25.0,1.8,< 4.60,
"C[C@@H]1CN([C@@H]2CCc3ccccc3[C@H]2Nc2ncnc3[nH]c(C(F)(F)F)cc23)C[C@H](C)O1 (single isomer, unassigned) [EP-0040494]",25.0,4.1,< 4.60,
"C[C@@H]1CN([C@@H]2CCc3ccccc3[C@H]2Nc2ncnc3[nH]c(C4CC4)cc23)CCO1 (single isomer, unassigned) [EP-0040497]",25.0,4.3,5.16,
"C[C@@H]1CN([C@@H]2CCc3ccccc3[C@H]2Nc2ncnc3[nH]c(C4CC4)cc23)C[C@H](C)O1 (single isomer, unassigned) [EP-0040499]",25.0,4.3,5.28,
"Fc1ccc2c(c1)OC[C@@H](N1CCOCC1)[C@@H]2Nc1ncnc2[nH]c(C3CC3)cc12 (single isomer, unassigned) [EP-0040501]",25.0,5.0,4.85,
